For the experiment, the target named is T1, hP2X7R (purinergic receptor P2X7, P2X7R) (Homo sapiens, UniProt Q99572).
T1 construct: gene P2RX7; homotrimer
T1 sequence (Q99572 1-595): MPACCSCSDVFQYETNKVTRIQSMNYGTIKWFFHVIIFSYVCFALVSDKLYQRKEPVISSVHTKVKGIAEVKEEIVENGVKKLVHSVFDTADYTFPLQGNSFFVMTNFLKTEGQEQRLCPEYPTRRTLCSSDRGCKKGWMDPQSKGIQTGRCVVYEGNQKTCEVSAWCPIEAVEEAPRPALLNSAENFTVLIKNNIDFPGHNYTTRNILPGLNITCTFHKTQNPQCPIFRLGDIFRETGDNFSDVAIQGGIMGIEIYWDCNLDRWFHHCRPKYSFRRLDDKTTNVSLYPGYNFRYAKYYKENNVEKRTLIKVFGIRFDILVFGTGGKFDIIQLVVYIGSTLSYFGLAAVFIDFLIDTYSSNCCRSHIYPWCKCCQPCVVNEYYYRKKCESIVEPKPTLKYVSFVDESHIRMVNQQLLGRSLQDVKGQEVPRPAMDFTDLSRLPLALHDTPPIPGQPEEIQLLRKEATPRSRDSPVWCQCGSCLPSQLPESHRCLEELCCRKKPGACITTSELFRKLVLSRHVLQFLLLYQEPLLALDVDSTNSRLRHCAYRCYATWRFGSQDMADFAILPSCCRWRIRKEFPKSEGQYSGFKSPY
Description: ethidium bromide uptake (pore formation), flow cytometry, HEK-293T cells. In kind it is cell-based. The following applies: read-out: EB uptake IC50. Background: A flow cytometer gives signals particle by particle.

As a reminder, the pIC50 is the negative decadic logarithm of the IC50, by convention in mol/L.

pIC50: −log10 of the molar value. Structures can show the parent of a compound that is named as a salt.

With `CC(Cc1cccc(C(F)(F)F)c1)C(=O)Nc1cccc(S(=O)(=O)NCCN)c1` (stereo not shown) [Z1456467176, N-{3-[(2-aminoethyl)sulfamoyl]phenyl}-2-methyl-3-[3-(trifluoromethyl)phenyl] propanamide hydrochloride], the pIC50 is 5.47.

Values taken from article PMC9424684, “Z1456467176 alleviates gouty arthritis by allosterically modulating P2X7R to inhibit NLRP3 inflammasome activation” (Frontiers in Pharmacology, 2022).
